Reference: patent publication US9399070B2, “Compositions comprising a polymeric reagent and a pharmacologically active agent” (Nektar Therapeutics, priority 2003, dated 2016)

Legend:
[1] = system: NB2-11 cells; test: NB2-11 rat lymphoma cell proliferation assay; conditions: in vitro; based on determined protein content; unmodified hGH = 100% bioactivity; preliminary
Method: The biological activity of hGH and the conjugates described in Table 1 was assessed in vitro using an NB2-11 rat lymphoma cell proliferation assay. Briefly, NB2-11 cells derived from a rat lymphoma were incubated with hGH, which leads to binding of the hGH molecule to its receptor on the cell surface. Receptor binding induces the signal transduction cascade, which results in proliferation of the cells. Assay results were based on determined protein content, and a 100% bioactivity of unmodified hGH.

[2] = system: hypophysectomized rat; test: in vivo bioassay, weight gain in hypophysectomized rat (USP monograph for Somatotropin); conditions: for increase of weight (day 8): single high dose of 110 μg on day 1, day 8
Method: Conjugates 1M and 1D were further evaluated in a preliminary in vivo bioassay (hypophysectomized rat, USP monograph for Somatotropin®). Six groups of each of five animals received either hGH, 1M, 1D, or placebo in different dosing regimes. Weight gain as a pharmacodynamic output was measured on day 1, 3, 6, and 8.
The results of the experiment are summarized in FIG. 4 (weight gain following day 8) and FIG. 5 (weight gain over time course of study). […] Daily dosing of 5 μg of the hGH standard induced an overall weight gain of 4% on day 8, whereas the single high dose of 110 μg of 1M and ID produced an increase of weight of 7% and 9% respectively (FIG. 4).

| Substance | Activity, % [1] [%] | increase of weight (day 8) [2] [%] | also measured |
| --- | --- | --- | --- |
| di(mPEG-2-ButyrALD-40k) hGH [Sample 4D] | 0.2 |  |  |
| mono(mPEG-2-ButyrALD-40k) hGH [Sample 4M] | 2.5 |  |  |
| hGH: Native, recombinant human growth hormone, unmodified |  |  | overall weight gain on day 8 ([2]; daily dosing of 5 μg (cumulative 35 μg), day 8): 4%; weight gain during the eight days ([2]; single high dose (110 μg, day 1)): no or moderate weight gain |
| mono(mPEG-2-NHS-40k) hGH [Sample 1M] |  | 7 |  |
| di(mPEG-2-NHS-40k) hGH [Sample 1D] | 0.4 | 9 | animal death in study group ([2]; 1D bolus group, single dose 110 μg, five animals per group): death of one animal |
